What was measured:
Assay type in all cases: cell-based
[1] = tested on: RecA-GFP fusion protein in E. coli MG1655; test: Inhibition of norfloxacin-triggered RecA-GFP induction in E. coli MG1655
Experimental: An increase in DNA damage-induced RecA protein expression is required for identification and repair of DNA lesions. LexA-repressed transcription of a norfloxacin-triggered SOS response was measured by detecting an increase in RecA-GFP fusion protein fluorescence in an E. coli recombinant model. The compounds of the disclosure inhibited RecA-GFP induction and presumably, the concurrent SOS response. Inhibition of RecA-GFP expression correlated with an increase in cell death, most likely as a result of ALD activation. Sub-potent concentrations of Polymixin E were used to facilitate entry of the compounds into cells.
E. coli MG1655 was grown from a glycerol stock by placing a small volume of cells onto a MHA plate. The MHA plate was incubated overnight at 37° C. A single colony was subsequently used to inoculate MHB+10 μg/mL kanamycin to obtain a bacterial broth suspension. This was grown in at 37° C. on a rotary shaking incubator (100 rpm) for 12 hours. The bacterial cell concentration was adjusted to ˜5×10^5 colony forming units per milliliter (CFU/mL) in MHB using optical density at 595 nm. Treated cells with polymyxin E (PME) or norfloxacin (in μg/ml) at indicated concentrations for 30 minutes at 37° C. and then added a compound of the disclosure at indicated micromolar concentrations. Incubated for 3.5 hours at 37° C. Cell samples were read on the flow cytometer to detect (green fluorescent) RLU RecA expression and/or shutdown.
(§1) E. coli MG1655 was grown from a glycerol stock by placing a small volume of cells onto a MHA plate. The MHA plate was incubated overnight at 37° C. A single colony was subsequently used to inoculate MHB+10 μg/mL kanamycin to obtain a bacterial broth suspension. The MHB broth suspension was grown at 37° C. on a rotary shaking incubator (100 rpm) for 12 hours. The bacterial cell concentration was adjusted to ˜5×10^5 CFU/mL in MHB using OD at 595 nm.
Cells were treated with 0.03 μg/mL and 0.06 μg/mL norfloxacin for 30 minutes at 37° C. Then, 100 μM of the compounds were added. The cells were incubated for 3.5 hours at 37° C. 200 μL aliquots were removed and read by a flow cytometer to detect RecA production and/or shutdown. The cells were incubated for an additional 18 hours at 37° C. to assess overall toxicity.

E. coli pUC18 = test: Nitrocefin β-lactamase assay (outer membrane disruption); settings: 10 μM melittin; 10 μg/mL PME; 6, 12, 24 μM Compound 25 and 26; 100 μM Compound 27; 50 μM Compound 15; 30 minutes
Experimental: E. coli pUC18 was grown from a glycerol stock by placing a small volume of cells onto a MHA plate. The MHA plate was incubated overnight at 37° C. A single colony was subsequently used to inoculate MHB+100 μg/mL ampicillin to obtain a bacterial broth suspension. The MHB broth suspension was grown at 37° C. on a rotary shaking incubator (100 rpm) for 12 hours. The cells were washed 3× by centrifuging and washing with 1 mL medium 200. The washed bacterial cell concentration was adjusted to ˜1×10^7 CFU/mL in medium 200 using OD at 595 nm. The cells were treated cells with 10 μM melittin; 6, 12, 24 μM Compound 25; 6 μM, 12 μM, 24 μM Compound 26; 100 μM Compound 27; 50 μM Compound 15; and 10 μg/mL PME. The cells were incubated at 37° C. for 30 minutes; added 50 μM nitrocefin and incubated 10 minutes at 37° C.
pUC18 E. coli carry an ampicillin resistance gene and produce β-lactamase.

E. coli pNMT41 = test: 6-chloro-4-methyl-umbelliferyl-β-D-glucuronide assay for beta-glucuronidase (inner membrane disruption); settings: 10 μg/mL PME
Experimental: E. coli pNMT 41 was grown from a glycerol stock by placing a small volume of cells onto a MHA plate. The MHA plate was incubated overnight at 37° C. A single colony was subsequently used to inoculate MHB+100 μg/mL ampicillin to obtain a bacterial broth suspension. The MHB broth suspension was grown at 37° C. on a rotary shaking incubator (100 rpm) for 12 hours. The bacterial cell concentration was adjusted to ˜1×10^7 CFU/mL in MHB using OD at 595 nm. The cells were washed 3× by spinning by centrifuge and washing with 500 μL medium 200. The cells were resuspended in 7 mL medium 200. The cells were treated with 10 μM melittin, 6, 12, 24, and 100 μM Compound 25, and 10 μg/mL PME. The cells were incubated at 37° C. for 30 minutes. 1 μM umbelliferyl was added, and the cells were incubated further for 10 minutes at 37° C.
The cells were then incubated at 37° C. for 45 minutes. 1 μM umbelliferyl was added, and the cells were incubated further for 10 minutes at 37° C.

red blood cells = test: Red blood cell lysis capacity
Experimental: Diluted red blood cells were aliquoted into clear tissue culture media−/+addition of 40% human serum and added either 2 μL or 40 μL of cell lysis buffer (LB), 50 μM, 40 μM, 20 μM, 15 μM, 10 μM, or 5 μM Compound 14. The samples were agitated by vortex and spun by centrifuge.

E. coli = test: Filamentation with ciprofloxacin and Compound 25 on E. coli; settings: for cell morphology and growth: 16 hours
Experimental: as §1, with “E. coli: E.” for “E.”, “coli” for “coli MG1655”, “MHB” for “MHB+10 μg/mL kanamycin”, “˜1×10^7” for “˜5×10^5”, “nm. […] The culture tubes were incubated for 16 hours at 37° C. After 16 hours incubation, took 3 μL of cells from each well and plated on microscope slide to observe the following: […]” for “nm.”

A. baumannii ATCC 15151 = test: DNA degradation (agarose gel), drug-sensitive strain; settings: 1.5% H2O2, 10 μg/mL ciprofloxacin, 100 μM Compound 25; 3 hours
H. pylori Hp A-4 = test: Direct comparison of Compound 26 in 5% FBS on H. pylori and A. baumannii
Experimental: A direct comparison of Compound 26 in 5% […] on H. pylori Hp A-4 and A. baumannii BAA-1797 was performed. The conditions were standard liquid culture conditions for each organism in 5% FBS. A lawn of H. pylori Hp A-4 on a blood agar plate was prepared. 1 μL of Compound 26 at various concentrations and 1 μL of 100% sterile DMSO were spotted on the blood agar plate. The plate was incubated for 4 days at 37° C. in 5% CO2.

[2] = 20 μM Compound 25+25 ng/mL ciprofloxacin

Question: How did the “RecA attenuation with norflox on E. coli” value [1] turn out when `Cl.Fc1ccc(N/N=C/c2c[nH]c3cccc(OCc4ccccc4)c23)cc1` [Compound 27, (E)-2-((4-(benzyloxy)-1H-indol-3-yl)methylene)-1-(4-fluorophenyl)hydrazin-1-ium] was run?
Answer: Its value is “Yes”.

Question: What about the “outer membrane disruption (β-lactamase leakage, nitrocefin colour)” value (E. coli pUC18) of the same compound?
Answer: The value was “caused outer membrane disruption”.

Question: How did the “RecA attenuation with norflox on E. coli” value [1] turn out when `Clc1ccc(N/N=C/c2c[nH]c3ccc(Br)cc23)cc1` [Compound 15, (E)-5-bromo-3-((2-(4-chlorophenyl)hydrazineylidene)methyl)-1H-indole] was run?
Answer: Its value is “Yes”.

Question: What does the source list for `Nc1cccc2[nH]cc(/C=N/Nc3ccc(Cl)cc3)c12` [Compound 14, (E)-3-((2-(4-chlorophenyl)hydrazineylidene)methyl)-1H-indol-4-amine]?
Answer: RecA attenuation with norflox on E. coli [1]: Yes; inner membrane disruption (GUS fluorescence) (E. coli pNMT41; separate experiment, 12.5 μM Compound 14, 45 minutes): did not disrupt inner membrane; red blood cell lysis (red blood cells; 40% additional human serum, 50 μM Compound 14): did not lyse cells; red blood cell lysis (red blood cells; no additional serum, 40 μM Compound 14): lysed some red blood cells

Question: For `Brc1ccc(N/N=C/c2c[nH]c3cccc(OCc4ccccc4)c23)cc1.Cl` [Compound 25, (E)-2-((4-(benzyloxy)-1H-indol-3-yl)methylene)-1-(4-bromophenyl)hydrazin-1-ium chloride], which “RecA attenuation with norflox on E. coli” value [1] is on record?
Answer: Its value is “Yes”.

Question: What about the “inner membrane disruption (GUS fluorescence)” value (E. coli pNMT41; 10 μM melittin, 6, 12, 24, 100 μM Compound 25, 30 minutes) of the same compound?
Answer: The value was “did not disrupt the inner membrane”.

Question: And the “inhibition of ciprofloxacin-induced filamentation” value (E. coli; [2])?
Answer: Its value is “only slightly inhibited”.

Question: What about the “cell morphology and growth” value (E. coli; [2]) of the same compound?
Answer: The value was “elongated in morphology and growth inhibition was observed”.

Question: What about the “cell morphology and growth” value (E. coli; single agent: 25 ng/mL ciprofloxacin or 20 μM Compound 25) of the same compound?
Answer: The value was “morphologically normal and growth inhibition was observed”.

Question: What about the DNA degradation (A. baumannii ATCC 15151) of the same compound?
Answer: The DNA degradation was “did not degrade DNA”.

Question: With `Cl.Clc1ccc(N/N=C/c2c[nH]c3cccc(OCc4ccccc4)c23)cc1` [Compound 26, (E)-2-((4-(benzyloxy)-1H-indol-3-yl)methylene)-1-(4-chlorophenyl)hydrazin-1-ium] as the compound, how does the “RecA attenuation with norflox on E. coli” value [1] read?
Answer: Its value is “Yes”.

Question: What about the “increase in anti-bacterial activity for H. pylori compared to A. baumannii” value (H. pylori Hp A-4) of the same compound?
Answer: The value was 16.6 fold.

Reference: patent US12655101B2, “Small molecules with antibacterial activity” (NEW MEXICO TECH UNIVERSITY RESEARCH PARK CORPORATION, priority 2021, dated 2026)
